Target: T1, recombinant human GR (Homo sapiens, UniProt P04150)
T1 construct: purchased Panvera/Invitrogen P2812 (kit P2893)
T1 sequence (P04150 1-777): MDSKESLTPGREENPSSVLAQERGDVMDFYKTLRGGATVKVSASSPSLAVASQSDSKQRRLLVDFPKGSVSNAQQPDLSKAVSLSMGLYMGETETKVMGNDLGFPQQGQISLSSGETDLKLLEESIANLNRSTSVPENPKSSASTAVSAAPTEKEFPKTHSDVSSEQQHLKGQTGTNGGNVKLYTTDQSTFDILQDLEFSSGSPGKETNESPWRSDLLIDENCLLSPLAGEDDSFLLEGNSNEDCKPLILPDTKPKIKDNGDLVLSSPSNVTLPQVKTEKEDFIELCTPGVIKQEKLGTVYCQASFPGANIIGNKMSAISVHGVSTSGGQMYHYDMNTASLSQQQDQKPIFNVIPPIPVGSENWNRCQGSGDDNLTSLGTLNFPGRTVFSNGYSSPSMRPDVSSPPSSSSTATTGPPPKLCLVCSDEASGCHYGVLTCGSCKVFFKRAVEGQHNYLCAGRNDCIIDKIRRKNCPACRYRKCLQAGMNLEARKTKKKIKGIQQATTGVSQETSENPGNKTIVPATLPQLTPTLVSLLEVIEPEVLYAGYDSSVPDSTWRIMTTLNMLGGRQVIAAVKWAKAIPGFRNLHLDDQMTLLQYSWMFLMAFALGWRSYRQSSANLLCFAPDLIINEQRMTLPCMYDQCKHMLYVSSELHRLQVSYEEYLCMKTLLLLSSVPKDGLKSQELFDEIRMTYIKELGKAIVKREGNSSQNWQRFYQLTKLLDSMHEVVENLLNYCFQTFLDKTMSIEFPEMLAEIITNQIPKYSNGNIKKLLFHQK
Assay: Human Glucocorticoid Receptor (GR) fluorescence polarization assay
Format: binding
Conditions: GS Red tracer, 2 hours at room temperature
Experimental: Human Glucocorticoid Receptor (GR) Assay
The assay is based on a commercial kit from Panvera/Invitrogen (Part number P2893). The assay technology is fluorescence polarization. The kit utilises recombinant human GR (Panvera, Part number P2812), a Fluoromone™ labelled tracer (GS Red, Panvera, Part number P2894) and a Stabilizing Peptide 10× (Panvera, Part number P2815). The GR and Stabilizing Peptide reagents are stored at −70° C. while the GS Red is stored at −20° C. Also included in the kit are 1M DTT (Panvera, Part number P2325, stored at −20° C.) and GR Screening buffer 10× (Panvera, Part number P2814, stored at −70° C. initially but once thawed stored at room temperature). Avoid repeated freeze/thaws for all reagents. The GR Screening buffer 10× comprises 100 mM potassium phosphate, 200 mM sodium molybdate, 1 mM EDTA and 20% DMSO.
Test compounds (1 μL) and controls (1 μL) in 100% DMSO were added to black polystyrene 384-well plates (Greiner low volume black flat-bottom, part number 784076). 0% control was 100% DMSO and 100% control was 10 μM Dexamethasone. […] The plate was read in an Analyst plate reader (LJL Biosystems/Molecular Devices Corporation) or other similar plate reader capable of recording fluorescence polarization (excitation wavelength 530 nm, emission wavelength […] and a dichroic mirror at 561 nm). The IC50 values were calculated using XLfit model 205.

IC50: 240 nM
Structure (SMILES): CC1=CC(C)(C)N(Cc2ccc(Cl)cc2)c2ccccc21 [CAS120109-44-6]

Reference: US20090036484A1, “Use of Unsaturated Quionoline or Naphtalene Derivatives as Medicaments” (AstraZeneca AB, priority 2004, published 2009)
